Holding throughout (assay): microbe, parasite or virus in culture
Holding throughout (conditions): Human immunodeficiency virus 1, MT4

Assay [1] has as its system Human immunodeficiency virus 1.
For assay [2], the system named is Human immunodeficiency virus 1. The source holds these as a separate data set.
The test system of assay [3] is Human immunodeficiency virus 1. The source holds these as a separate data set.
Assay [4] relates to Human immunodeficiency virus 1. This is another data set of the same source.
Assay [5] relates to Human immunodeficiency virus 1. The source holds these as a separate data set.
Assay [6] relates to Human immunodeficiency virus 1. The source holds these as a separate data set.
The subject of assay [7] is Human immunodeficiency virus 1. In kind it is functional, organism-based, MT4.

What is called IC50 is the midpoint of a concentration-inhibition curve. A lower IC50 goes with greater potency in that assay.

The structures appear in SMILES notation.

On to `Cc1cccc(C)c1Nc1ccnc(Nc2ccc(C#N)cc2)n1`, for which the IC50 in assay [1] is more than 10000 nM; in assay [2], 212 nM; in assay [3], 28 nM; in assay [4], 61 nM; in assay [5], 260 nM; in assay [6] it was 0.7 nM.

As to `Cc1cc(C)c(Nc2nc(Nc3ccc(C#N)cc3)ncc2Cl)c(C)c1`, the IC50 in assay [7] turned out to be 138 nM; in assay [1] it was 319 nM; in assay [2], 17 nM; in assay [3], 6 nM; in assay [4], 32 nM; in assay [5], 34 nM. Further, in assay [6], the IC50 is 2.7 nM.

Take `Cc1cc(Br)cc(C)c1Oc1ccnc(Nc2ccc(C#N)cc2)n1`: the IC50 came out at 217 nM in assay [7]; 2370 nM in assay [1]; 113 nM in assay [2]; 4.7 nM in assay [3]; 59 nM in assay [4]; 79 nM in assay [5]. The compound also displayed an IC50 in assay [6] of 2.9 nM.

`Cc1cc(C)c(Sc2ccnc(Nc3ccc(C#N)cc3)n2)c(C)c1`: the concentration for half-maximal inhibition (IC50) in assay [1] amounted to 4790 nM; in assay [2], 54 nM; in assay [3], 12 nM; in assay [4], 25 nM; in assay [5], 20 nM; in assay [6], 3.6 nM.

In the case of `N#Cc1ccc(Nc2cc(Cc3c(Cl)cccc3Cl)nc(N)n2)cc1`, the 50% inhibitory concentration (IC50) was 96600 nM in assay [2]; 33300 nM in assay [3]; more than 100000 nM in assay [4]; more than 100000 nM in assay [5]; 10 nM in assay [6].

Regarding `Cc1cc(Cl)cc(Cl)c1Nc1ccnc(Nc2ccc(C#N)cc2)n1`, the IC50 was more than 10000 nM in assay [1]; 60 nM in assay [2]; 13 nM in assay [3]; 18 nM in assay [4]; 86 nM in assay [5]; 1 nM in assay [6].

As to `N#Cc1ccc(Nc2nc(N)cc(Cc3c(Cl)cccc3Cl)n2)cc1`, the IC50 came out at 299 nM in assay [2]; 12 nM in assay [3]; 175 nM in assay [4]; 71 nM in assay [5]; 1 nM in assay [6].

Take `CC(C)Nc1cccnc1N1CCN(C(=O)c2cc3cc(NS(C)(=O)=O)ccc3[nH]2)CC1` [DELAVIRDINE]: the IC50 in assay [7] is 20000 nM; in assay [2], 2510 nM; in assay [3] it was 2510 nM; in assay [4], 2000 nM; in assay [5], 1260 nM; in assay [6] it was 63 nM.

With `N#Cc1ccc(Nc2nccc(Nc3c(Cl)cc(Cl)cc3Cl)n2)cc1`, the IC50 in assay [1] was more than 10000 nM; in assay [2], 14 nM; in assay [3], 3 nM; in assay [4] it was 10 nM; in assay [5] it was 99 nM; in assay [6], 0.7 nM.

As for `N#Cc1ccc(Nc2cc(N)nc(Cc3c(Cl)cccc3Cl)n2)cc1`, the 50% inhibitory concentration (IC50) was more than 100000 nM in assay [2]; more than 100000 nM in assay [3]; more than 100000 nM in assay [4]; more than 100000 nM in assay [5]; 452 nM in assay [6].

Consider `Cc1cc(C)c(Nc2nc(Nc3ccc(C#N)cc3)ncc2C#N)c(C)c1`, for which the IC50 was determined as 63 nM in assay [2]; 3.4 nM in assay [3]; 40 nM in assay [4]; 77 nM in assay [5]; 1 nM in assay [6].

In assay [6], `Cc1cc(C)c(Nc2nc(Nc3ccc(C#N)cc3)ncc2-c2ccccc2)c(C)c1` registered an IC50 of 24 nM.

As to `CC(=O)Nc1cnc(Nc2ccc(C#N)cc2)nc1Oc1c(C)cc(C#N)cc1C`, the IC50 in assay [7] came to 30 nM; in assay [1] it was 205 nM; in assay [3] it was 3.3 nM.

`N#Cc1ccc(Nc2nccc(Nc3c(F)cc(Br)cc3Br)n2)cc1`: the concentration for half-maximal inhibition (IC50) is more than 10000 nM in assay [1]; 15 nM in assay [2]; 5.7 nM in assay [3]; 15 nM in assay [4]; 64 nM in assay [5]; 0.6 nM in assay [6].

Regarding `N#Cc1ccc(Nc2nc(N)nc(Cc3c(Cl)cccc3Cl)n2)cc1`, in assay [6], the IC50 was 6 nM.

In the case of `C#Cc1cnc(Nc2ccc(C#N)cc2)nc1Nc1c(C)cc(C)cc1C`, the IC50 in assay [7] stood at 42 nM; in assay [1], 71 nM; in assay [3], 6.2 nM.

The values are drawn from ChEMBL document CHEMBL1133923, “Evolution of anti-HIV drug candidates. Part 3: Diarylpyrimidine (DAPY) analogues” (Bioorg Med Chem Lett, 2001).
